Assay results published in patent publication US20250127905A1, “GLUTARIMIDE COMPOUND AND USE THEREOF” (MEDSHINE DISCOVERY INC., priority 2021, published 2025).
Structures can show the parent of a compound that is named as a salt.

Key:
[1] = Pharmacokinetic evaluation in mice, experimental operation B (C57BL/6N); type: in vivo; conditions: C57BL/6N mice
From the text: (§1) In this study, CD-1 or C57BL/6N male mice were selected as test animals, and LC/MS/MS method was used to quantify plasma concentrations of the test compound intravenously injected or intragastrically administered to mice at different time points, so as to evaluate the pharmacokinetic profile of the test drug in mice.
CD-1 mice (male, 20 to 35 g, 7 to 10 weeks old, Beijing Vital River) or C57BL/6N mice (male, 20 to 30 g, 7 to 10 weeks old, Beijing Vital River)
A clarified solution or suspension of the test compound was injected into C57BL/6N mice (overnight fasting) via the tail vein (vehicle: 5% DMSO/10% Solutol/85% H2O), or intragastrically administered into C57BL/6N mice (overnight fasting). For intravenous injection, […] of blood was collected via the cheek puncture at 0 h (pre-administration) and 0.083 h, 0.25 h, 0.5 h, 1 h, 2 h, 4 h, 6 h, 8 h, and 24 h after administration, and placed in an anticoagulant tube added with heparin sodium. The mixture was thoroughly vortexed and mixed, and centrifuged at 6000 g for 3 minutes at 2 to 8° C. For oral administration, blood was collected via the cheek puncture at 0 h (pre-administration) and 0.083 h, 0.25 h, 1 h, 2 h, 4 h, 6 h, 8 h, and 24 h after administration, and placed in an anticoagulant tube added with heparin sodium. The mixture was thoroughly vortexed and mixed, and centrifuged at 6000 g for 3 minutes at 2 to 8° C. Plasma concentrations were determined by LC-MS/MS method, and relevant pharmacokinetic parameters were calculated using Phoenix WinNonlin 8.2.0 pharmacokinetic software with non-compartmental model linear-log trapezoidal method.

[2] = Pharmacokinetic evaluation in Beagles; type: in vivo
Experimental: as §1, with “study,” for “study, CD-1 or C57BL/6N”, “Beagles” for “mice”, “Beagles.” for “mice.”
• Beagles (male, 9 to 11 kg, Jiangsu Yadong Institute of Experimental Animals Co., Ltd.).
A clarified solution or suspension of the test compound was injected into Beagles (feeding) via the tail vein (vehicle: 5% DMSO/10% Solutol/85% H2O), or intragastrically administered into Beagles (feeding). For intravenous injection, 1 mL of blood was collected from the forelimb vein at 0 h (pre-administration) and 0.083 h, 0.25 h, 0.5 h, 1 h, 2 h, 4 h, 6 h, 8 h, and 24 h after administration, and anticoagulated with EDTA-2K. The mixture was thoroughly vortexed and mixed, and centrifuged at 6000 g for 3 minutes at 2 to 8° C. For oral administration, 1 mL of blood was collected from the forelimb vein at 0 h (pre-administration) and 0.083 h, 0.25 h, 0.5 h, 1 h, 2 h, 4 h, 6 h, 8 h, and 24 h after administration, and anticoagulated with EDTA-2K. The mixture was thoroughly vortexed and mixed, and centrifuged at 6000 g for 3 minutes at 2 to 8° C. Plasma concentrations were determined by LC-MS/MS method, and relevant pharmacokinetic parameters were calculated using Phoenix WinNonlin 8.2.0 pharmacokinetic software with non-compartmental model linear-log trapezoidal method.

[3] = Intragastric administration 10 mg/kg
[4] = Intragastric administration (3 mg/kg)

- Area under the drug-time curve (0-inf) [1, 3]: 2.51 µM·h
- Peak concentration [1, 3]: 0.4 µM
- Time to peak concentration [1, 3]: 1.33 h
- Area under the drug-time curve (0-inf) ([1]; Intravenous injection 2 mg/kg): 1.45 µM·h
- bioavailability ([1]; male, mouse, plasma, IV 2 mg/kg, PO 10 mg/kg, read-out: Bioavailability F): 34.6%
- clearance ([1]; male, mouse, plasma, Intravenous injection 2 mg/kg): 27.6 mL/min/kg
- Vd ([1]; male, mouse, plasma, Intravenous injection 2 mg/kg, read-out: Apparent volume of distribution): 4.82 L/kg
- half-life ([1]; male, mouse, plasma, Intravenous injection 2 mg/kg, read-out: Elimination half-life (converted)): 4.25 h
- Area under the drug-time curve (0-inf) [2, 4]: 1.13 µM·h
- Peak concentration [2, 4]: 0.12 µM
- Time to peak concentration [2, 4]: 4.67 h
- Area under the drug-time curve (0-inf) ([2]; Intravenous injection (0.5 mg/kg)): 0.27 µM·h
- clearance ([2]; male, beagle, dog, plasma, Intravenous injection (0.5 mg/kg)): 37.5 mL/min/kg
- Vd ([2]; male, beagle, dog, plasma, Intravenous injection (0.5 mg/kg), read-out: Apparent volume of distribution): 8.44 L/kg
- half-life ([2]; male, beagle, dog, plasma, Intravenous injection (0.5 mg/kg), read-out: Elimination half-life (converted)): 2.93 h
- bioavailability ([2]; male, beagle, dog, plasma, oral, IV 0.5 mg/kg, intragastric 3 mg/kg, read-out: Bioavailability F): 70.3%
SMILES: O=C1CCC(c2noc3c(NC(=O)CN4CCN(C[C@H]5CC[C@H](n6cc(NC(=O)c7cnn8ccc(N9C[C@H]%10C[C@@H]9CO%10)nc78)c(C(F)F)n6)CC5)CC4)cccc23)C(=O)N1 (stereo partly shown) [Hydrochloride of WX015]
